A value given as a limit tells only on which side of the number the result lay.

One may read the EC50 as the concentration at which the effect is half-maximal. Read a low EC50 as an effect from little substance.

This assay deals with human 5HT2c receptor (VSV Isoform) (Homo sapiens, UniProt P28335, I156V/I160V/N158S). Put plainly: cell-based. The conditions noted are these: 5-HT2c EC50 (hVSV, μM).
Chain of human 5HT2c receptor (VSV Isoform) (P28335 33-458 I156V/N158S/I160V limits assumed): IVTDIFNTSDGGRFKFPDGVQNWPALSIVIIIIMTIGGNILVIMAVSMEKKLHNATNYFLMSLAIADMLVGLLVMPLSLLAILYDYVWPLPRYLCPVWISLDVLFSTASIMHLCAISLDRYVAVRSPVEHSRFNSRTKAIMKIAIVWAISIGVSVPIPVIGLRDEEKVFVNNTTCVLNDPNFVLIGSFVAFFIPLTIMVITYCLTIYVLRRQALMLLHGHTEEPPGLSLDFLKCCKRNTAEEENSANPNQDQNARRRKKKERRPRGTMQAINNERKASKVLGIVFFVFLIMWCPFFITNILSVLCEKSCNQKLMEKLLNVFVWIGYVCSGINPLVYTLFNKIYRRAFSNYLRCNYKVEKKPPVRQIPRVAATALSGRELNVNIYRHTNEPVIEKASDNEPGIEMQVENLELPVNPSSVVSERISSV

In the case of `Cc1cc2c(cc1Cl)C1CNCC1C2C` (stereo not drawn) [Example 23, 5-Chloro-6-methyl-8-methyl-1,2,3,3a,8,8a-hexahydroindeno[1,2-c]pyrrole], the EC50 is less than 1 µM.

`Cc1cc2c(cc1Br)C1CNCC1C2C` (stereo not drawn) [Example 24, 5-Bromo-6-methyl-8-methyl-1,2,3,3a,8,8a-hexahydroindeno[1,2-c]pyrrole]: the EC50 is less than 1 µM.

Turning to `CC1c2cc(Cl)c(Cl)cc2C2CNCC12` (stereo not drawn) [Example 26, 5,6-Dichloro-8-methyl-1,2,3,3a,8,8a-hexahydroindeno[1,2-c]pyrrole], the concentration for a half-maximal effect (EC50) is less than 0.1 µM.

Take `CC1c2c(ccc(Cl)c2Cl)C2CNCC12` (stereo not drawn) [Example 27, 6,7-Dichloro-8-methyl-1,2,3,3a,8,8a-hexahydroindeno[1,2-c]pyrrole]: the EC50 is less than 0.1 µM.

As to `CC1c2cc(Cl)cc(Cl)c2C2CNCC12` (stereo not drawn) [Example 28, 4,6-Dichloro-8-methyl-1,2,3,3a,8,8a-hexahydroindeno[1,2-c]pyrrole], the EC50 is less than 0.1 µM.

The compound `COc1c(Cl)cc2c(c1Cl)C1CNCC1C2C` (stereo not drawn) [Example 38, 4,6-Dichloro-5-Methoxy-8-methyl-1,2,3,3a,8,8a-hexahydroindeno[1,2-c]pyrrole] had an EC50 of less than 0.1 µM.

With `CC1c2cc(Cl)c(OCC3CC3)cc2C2CNCC12` (stereo not drawn) [Example 39, 5-Cyclopropylmethoxy-6-chloro-8-methyl-1,2,3,3a,8,8a-hexahydroindeno[1,2-c]pyrrole], the EC50 was less than 1 µM.

For `CC1c2ccc(OC(F)(F)F)cc2C2CNCC12` (stereo not drawn) [Example 40, 5-Trifluoromethoxy-8-methyl-1,2,3,3a,8,8a-hexahydroindeno[1,2-c]pyrrole], the EC50 is greater than 10 µM.

As for `CCC1c2ccc(OC)cc2C2CNCC12` (stereo not drawn) [Example 48, 5-Methoxy-8-ethyl-1,2,3,3a,8,8a-hexahydroindeno[1,2-c]pyrrole], the EC50 was greater than 10 µM.

For the compound `COc1cc2c(cc1Cl)C(=O)C1CNCC21` (stereo not drawn) [Example 53, 5-Methoxy-6-chloro-2,3,3a,8a-tetrahydro-1H-2-aza-cyclopenta[a]inden-8-one], the concentration for a half-maximal effect (EC50) was less than 1 µM.

For `COc1ccc2c(c1Cl)C1CNCC1C2O` (stereo not drawn) [Example 54, 4-Chloro-5-methoxy-2,3,3a,8a-tetrahydro-1H-2-aza-cyclopenta[a]inden-8-ol], the EC50 is less than 1 µM.

The compound `COc1cc2c(cc1Cl)C(O)C1CNCC21` (stereo not drawn) [Example 55, 5-Methoxy-6-chloro-2,3,3a,8a-tetrahydro-1H-2-aza-cyclopenta[a]inden-8-ol] had an EC50 of less than 10 µM.

For the origin of these results see US8716324B2, “Tricyclic indeno-pyrrole derivatives as serotonin receptor modulators” (Athersys, Inc., priority 2004, dated 2014).
